# Measured values: US20090220528A1, “Stimulation of Toll-Like Receptors on T Cells” (THE TRUSTEES OF THE UNIVERISTY OF PENNSYLVANIA CNETER FOR …, priority 2005, published 2009)
# Columns and labels:
# Format in all cases: cell-based, mouse
# CD4+ T cells = experiment: TLR ligation at the time of T cell stimulation: proliferation, IL-2 production and signaling
# Procedure: The present experiments were designed to assess the effects of TLR ligation at the time of T cell stimulation, and analysis of signaling pathways which mediate them.
# Similar results were observed when anti-CD28 was used in combination with anti-CD3 (FIGS. 7B-7D). IL-2 production from treat T cells were also measured (FIG. 8). These effects were additive to those of anti-CD28 stimulation.
# This led to the examination of other signaling pathways downstream of TLR9. For example, experiments were designed to assess the role of phosphatidyl inositol 3 kinase (PI3K) in TLR9 activation because of the ability of TLR ligation to synergize with TCR stimulation for IL-2 production and proliferation was reminiscent of CD28 functions. PI3K is a lipid kinase which catalyzes the phosphorylation of phosphatidyl inositol bis 4, 5, phosphate (PIP2) into phosphatidyl inositol tris 3, 4, 5, phosphate (PIP3). PIP3 is an important cell signaling molecule, activating protein kinase B/Akt, and other downstream pathways. In T cells, PI3K activation is a major known downstream signaling pathway of the T cell costimulatory receptor CD28.
# [1] = system: activated DO11.10 CD4+ T cells; experiment: Proliferation by CFSE dye dilution; settings: 72 hours following activation; relative to untreated activated controls (FIG. 3D)
# Procedure: Following activation, purified CD4^+ T cells were washed twice in PBS and replated in culture medium at 10^6/ml. Cultures were left untreated or treated with either TLR ligands and/or inhibitors for indicated times and concentrations. Following incubation, CD4^+ T cells were washed twice in PBS/2% FBS and stained with CD4-allophycocyanin monoclonal antibody and 7-aminoactinomycin D (7-AAD; BD PharMingen) or annexin (BD PharMingen) and survival was assessed by exclusion of either of these two stains. […] Live CD4^+ T cell counts were calculated by taking the ratio of the number of CD4^+CD45.1^−7-ADD^− events collected to the number CD45.1^+ events collected and multiplying by 50,000. Proliferation was measured by CFSE dye dilution as previously described (Wells et al., 1997 J. Clin. Invest. 100:3173).
# Without wishing to be bound by any particular theory, the increases in live cells numbers observed could be explained by TLR ligand-mediated increases in CD4^+ T cell proliferation. […] To address this issue, CFSE-labeled DO11.10 CD4^+ T cells were first activated by pOVA-pulsed APCs for 16 hours, purified by magnetic beads, and then treated with TLR ligands and assessed for proliferation 72 hours following activation (FIG. 3D).
# activated CD4+ T cells [2] = experiment: Analysis of antiapoptotic molecules (Bcl-2 FACS; Bcl-xL, Bcl-3 Western blot)
# Procedure: For Bcl-2 evaluation, CD4^+ T cells were permeabilized with 0.1% saponin/0.2% FBS/PBS and stained with anti-Bcl-2 PE monoclonal antibody (3F-11; BD PharMingen) or an isotype hamster IgG-PE control (A19-3; BD PharMingen) and staining was analyzed by FACS. Bcl-xL, Bcl-3, and β-actin were analyzed by Western blotting using rabbit anti-mouse Abs specific for BCl-xL (BD Transduction Laboratories, Lexington, Ky.), Bcl-3 (Santa Cruz Biotechnology, Santa Cruz, Calif.), and β-actin (Accurate Labs, Westbury, N.Y.).
# Members of the Bcl family are mediators of activated CD4^+ T cell survival. […] Therefore, levels of each of these molecules were measured following TLR ligand treatment of activated CD4^+ T cells (FIGS. 4C and 4D). Bcl-2 protein levels were not changed by TLR ligand treatment relative to untreated activated CD4^+ T cell controls. Additionally, Bcl-3 protein levels were also left unaffected despite the fact that all of the TLR ligands used in the experiment are also used as adjuvants (Mitchell et al., 2001, Nat. Immunol. 2:397). […] Thus, directly mediated activated CD4^+ T cell survival is associated with specific BCl-xL up-regulation.
# activated CD4+ T cells [3] = experiment: NF-κB and MAP kinase signaling analysis (phospho-specific Western blot); settings: anti-CD3/anti-CD28 activated BALB/c CD4+ T cells (FIG. 2)
# Procedure: BALB/c CD44^lowCD25^−CD4^+ T cells were activated with plate-bound 1.0 μg/ml anti-CD3 and 1.0 μg/ml anti-CD28 monoclonal antibodies for 16 hours, washed, and rested for 8 hours at 37° C. Activated (1.5×10^6) CD4^+ T cells were then treated with TLR ligands for the indicated times, lysed in 1×SDS loading buffer (Bio-Rad Life Sciences), resolved on a 12% bis-Tris SDS-PAGE gel (Life Technologies), transferred to nitrocellulose filters (Life Technologies), and either probed with rabbit anti-mouse phospho-specific Abs for p-IκBα, p-p38, p-extracellular signal-regulated kinase (ERK) 1/2, or p-C-Jun N-terminal kinase (JNK)/stress-activated protein kinase (SAPK). To assess total amounts of signaling molecules, filters were also probed with either rabbit anti-mouse IκBα, p-38, ERK-1/2, or JNK/SAPK antibodies. Detection was conducted with HRP-conjugated goat ant-rabbit antibodies, ECL reagent (Amersham), and X-OMAT Film (Kodak, Rochester, N.Y.). All antibodies were purchased from Cell Signal Technologies (Beverly, Mass.).
# TLR ligands induce the activation of nuclear factor NF-κB and MAP kinases in APCs (Akira, 2003, J. Biol. Chem. 278:38105; Martin et al., 2002 Biochem. Biophys. Acta. 1592:265). The next set of experiments were designed to assess whether TLR ligands could also induce NF-κB and MAP kinase activity in activated CD4^+ T cells (FIG. 2). […]
substance,measurement,setting,value
poly(I:C),IL-2 protein production with T cell stimulation,CD4+ T cells; FIG. 8,able to synergize
same,TRAF6 requirement of proliferative effects,CD4+ T cells; FIG. 9,did not require TRAF6
same,T cell proliferation with T cell stimulation,"CD4+ T cells; with sub-mitogenic anti-CD3, with or without anti-CD28 (FIG. 7)",able to synergize
same,proliferation of activated CD4+ T cells,[1],did not enhance proliferation
same,Bcl-xL protein,activated CD4+ T cells [2]; over LPS-treated and untreated activated CD4+ T cells,significant increases
same,Bcl-3 protein levels,activated CD4+ T cells [2]; relative to untreated activated CD4+ T cell controls,not observed
same,NF-κB activity (phosphorylation of IκBα),activated CD4+ T cells [3],induce rapid NF-κB activity
same,"phosphorylation of p38 MAPK, ERK 1/2 and JNK/SAPK",activated CD4+ T cells [3],able to effect phosphorylation
